According to patent US20230117034A1, “PYRAZOLOTRIAZINES” (Bayer Aktiengesellschaft, priority 2019, published 2023):
pIC50: −log10 of the molar value.

What was measured:
CDK9/CycT1 = molecular target: T1, CDK9/CycT1 (Homo sapiens, UniProt P50750); test: CDK9/CycT1 high ATP kinase assay (TR-FRET, 2 mM ATP); format: biochemical; conditions: 2 mM ATP (high ATP); median; read-out: CDK9/CyclinT1, 2 mM ATP (high ATP), IC50 (median)
T1 construct: Recombinant full-length His-tagged human CDK9 and CycT1; purchased Life Technologies PV4131; host or cells: insect cells
In short: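 Full-length His-tagged human CDK9/CycT1 (insect cell, ~0.5 μg/mL) preincubated 15 min at 22 °C with compound in Tris pH 8.0, MgCl2, DTT buffer before reaction with biotinylated peptide substrate at high ATP (2 mM).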

[1] = test system: MDA-MB-231, human breast cancer cells; test: Proliferation assay MDA-MB-231 (crystal violet, 4 days); format: cell-based; conditions: Homo sapiens, MDA-MB-231, 96 h, MDA-MB-231 cells, median, read-out: Prolif-MDA MB-231, IC50-[mol/l] (median)
In short: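 Crystal violet proliferation read-out after 4 days of compound exposure (0.01-10 µmol/L; solvent 0.1% DMSO). Extinction at 595 nm, set between zero-point (0%) and vehicle (100%), fitted with 4 parameters to give IC50.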

[2] = molecular target: T2, CDK12 (nuclear staining in CAL-120 cells) (Homo sapiens, UniProt Q9NYV4); test: CDK12 nuclear protein level: immunofluorescence/high content analysis (CAL-120); format: cell-based; conditions: for DC50: CAL-120 cells, 24 h, immunofluorescence, 50% reduction of nuclear CDK12 staining intensity, median, read-out: CDK12 degradation IF, DC50- [mol/l] (median); for (IC50 CDK12 high ATP) to (Degradation DC50 CDK12) ratio: ratio of IC50 CDK12 high ATP kinase assay to DC50 CDK12 degradation (IF, CAL-120)
T2 construct: endogenous in cells; host or cells: CAL-120 human breast cancer cells (DSMZ ACC 459)
In short: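 DC50 is the degrader concentration that halves nuclear CDK12 immunofluorescence relative to controls, measured by high-content imaging. CAL-120 cells were exposed to compound for 24 h at 37 °C before PFA fixation, and signal was normalized to DMSO and control wells.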

T1 sequence (P50750 whole entry): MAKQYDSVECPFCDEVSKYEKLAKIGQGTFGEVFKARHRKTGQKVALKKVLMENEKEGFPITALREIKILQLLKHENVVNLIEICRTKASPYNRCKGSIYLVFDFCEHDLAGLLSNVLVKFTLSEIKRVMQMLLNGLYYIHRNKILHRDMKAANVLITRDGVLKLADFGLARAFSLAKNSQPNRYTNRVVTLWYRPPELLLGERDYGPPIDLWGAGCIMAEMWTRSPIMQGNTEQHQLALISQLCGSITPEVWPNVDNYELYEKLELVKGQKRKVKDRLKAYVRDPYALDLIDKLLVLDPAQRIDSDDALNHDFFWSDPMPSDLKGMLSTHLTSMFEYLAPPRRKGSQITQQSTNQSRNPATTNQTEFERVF
T1 sequence (O60563 whole entry partner): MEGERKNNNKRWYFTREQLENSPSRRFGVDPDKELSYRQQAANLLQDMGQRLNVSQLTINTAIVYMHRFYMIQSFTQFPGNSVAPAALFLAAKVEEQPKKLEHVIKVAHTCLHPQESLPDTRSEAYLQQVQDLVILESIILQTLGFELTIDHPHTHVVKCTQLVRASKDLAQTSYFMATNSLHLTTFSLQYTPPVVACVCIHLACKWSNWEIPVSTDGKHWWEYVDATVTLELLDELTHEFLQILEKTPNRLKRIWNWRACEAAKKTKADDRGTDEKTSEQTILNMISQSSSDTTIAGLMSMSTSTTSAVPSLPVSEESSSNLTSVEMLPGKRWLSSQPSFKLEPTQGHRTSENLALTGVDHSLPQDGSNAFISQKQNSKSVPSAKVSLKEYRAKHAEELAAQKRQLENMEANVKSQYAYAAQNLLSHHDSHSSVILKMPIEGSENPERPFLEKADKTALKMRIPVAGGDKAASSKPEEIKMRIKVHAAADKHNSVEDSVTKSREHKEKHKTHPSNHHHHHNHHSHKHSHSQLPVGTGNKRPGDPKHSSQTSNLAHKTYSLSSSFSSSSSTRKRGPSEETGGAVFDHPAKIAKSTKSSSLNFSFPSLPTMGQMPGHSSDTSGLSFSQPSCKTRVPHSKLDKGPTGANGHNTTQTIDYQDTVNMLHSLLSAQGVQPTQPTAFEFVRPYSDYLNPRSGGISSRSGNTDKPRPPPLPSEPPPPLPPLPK
T2 sequence (Q9NYV4 whole entry): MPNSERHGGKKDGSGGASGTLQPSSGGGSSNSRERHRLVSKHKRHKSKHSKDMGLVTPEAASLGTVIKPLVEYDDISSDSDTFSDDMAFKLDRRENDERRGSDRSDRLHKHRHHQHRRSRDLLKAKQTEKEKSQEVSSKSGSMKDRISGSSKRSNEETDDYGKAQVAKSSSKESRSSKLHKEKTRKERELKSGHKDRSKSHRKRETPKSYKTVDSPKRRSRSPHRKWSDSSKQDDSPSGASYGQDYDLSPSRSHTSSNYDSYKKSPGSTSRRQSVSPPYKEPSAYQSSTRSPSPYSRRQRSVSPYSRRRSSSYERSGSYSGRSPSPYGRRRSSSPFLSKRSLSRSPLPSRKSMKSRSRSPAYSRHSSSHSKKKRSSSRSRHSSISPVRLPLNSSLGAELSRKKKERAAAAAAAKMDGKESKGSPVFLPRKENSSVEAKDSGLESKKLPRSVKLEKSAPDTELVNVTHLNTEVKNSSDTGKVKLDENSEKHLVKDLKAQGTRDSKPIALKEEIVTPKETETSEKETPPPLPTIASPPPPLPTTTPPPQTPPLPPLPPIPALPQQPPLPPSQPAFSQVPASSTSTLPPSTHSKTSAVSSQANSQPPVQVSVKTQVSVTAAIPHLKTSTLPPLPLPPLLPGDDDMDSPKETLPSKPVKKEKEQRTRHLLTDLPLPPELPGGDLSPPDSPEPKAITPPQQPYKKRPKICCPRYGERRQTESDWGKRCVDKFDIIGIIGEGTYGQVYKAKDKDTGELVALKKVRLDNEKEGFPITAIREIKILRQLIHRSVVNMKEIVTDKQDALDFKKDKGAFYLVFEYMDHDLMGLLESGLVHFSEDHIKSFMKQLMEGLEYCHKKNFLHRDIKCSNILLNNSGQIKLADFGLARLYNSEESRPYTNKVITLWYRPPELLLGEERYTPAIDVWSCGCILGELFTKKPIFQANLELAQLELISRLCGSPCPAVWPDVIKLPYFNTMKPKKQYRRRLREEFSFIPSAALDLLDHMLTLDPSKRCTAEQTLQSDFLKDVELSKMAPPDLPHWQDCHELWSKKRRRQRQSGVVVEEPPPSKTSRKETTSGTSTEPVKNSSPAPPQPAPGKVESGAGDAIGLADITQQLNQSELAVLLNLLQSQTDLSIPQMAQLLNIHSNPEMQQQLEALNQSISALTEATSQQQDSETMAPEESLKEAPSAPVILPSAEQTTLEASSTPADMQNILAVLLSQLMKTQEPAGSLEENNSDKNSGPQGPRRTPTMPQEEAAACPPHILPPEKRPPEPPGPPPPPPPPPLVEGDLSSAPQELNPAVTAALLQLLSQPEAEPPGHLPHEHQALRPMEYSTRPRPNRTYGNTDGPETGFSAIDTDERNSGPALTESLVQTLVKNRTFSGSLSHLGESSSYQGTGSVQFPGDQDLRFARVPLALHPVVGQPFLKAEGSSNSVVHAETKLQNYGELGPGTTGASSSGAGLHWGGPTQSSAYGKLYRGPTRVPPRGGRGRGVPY
T2 sequence (O75909 whole entry partner): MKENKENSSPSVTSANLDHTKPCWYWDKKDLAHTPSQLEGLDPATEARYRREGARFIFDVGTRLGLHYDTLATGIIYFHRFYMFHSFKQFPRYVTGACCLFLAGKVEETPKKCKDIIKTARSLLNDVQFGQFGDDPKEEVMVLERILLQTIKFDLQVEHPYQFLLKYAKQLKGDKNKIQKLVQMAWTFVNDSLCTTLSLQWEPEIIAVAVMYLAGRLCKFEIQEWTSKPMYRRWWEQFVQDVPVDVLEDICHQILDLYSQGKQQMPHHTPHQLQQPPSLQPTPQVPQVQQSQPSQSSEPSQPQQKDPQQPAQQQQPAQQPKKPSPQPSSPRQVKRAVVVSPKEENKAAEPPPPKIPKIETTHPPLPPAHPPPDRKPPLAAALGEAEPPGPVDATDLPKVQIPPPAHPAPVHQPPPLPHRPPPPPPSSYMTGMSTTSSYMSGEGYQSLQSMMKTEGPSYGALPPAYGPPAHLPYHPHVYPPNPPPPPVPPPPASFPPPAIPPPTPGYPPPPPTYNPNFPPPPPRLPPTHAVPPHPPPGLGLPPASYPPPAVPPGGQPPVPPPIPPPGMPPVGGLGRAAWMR

| SMILES | pIC50 (CDK9/CycT1) | pIC50 [1] | DC50 [2] [nM] | (IC50 CDK12 high ATP) to (Degradation DC50 CDK12) ratio [2] |
| --- | --- | --- | --- | --- |
| CN1CCN(c2nc(NCc3nc4c(F)c(F)ccc4[nH]3)n3ncc(C4CC4)c3n2)CC1 [Example 159, 8-cyclopropyl-N-[(4,5-difluoro-1H-benzimidazol-2-yl)methyl]-2-(4-methylpiperazin-1-yl)pyrazolo[1,5-a][1,3,5]triazin-4-amine] | < 4.70 | 8.03 | 0.521 | 18457 |
| COc1ccc2[nH]c(CNc3nc(N4CCOCC4)nc4c(Br)cnn34)nc2c1 [Example 160, 8-bromo-N-[(5-methoxy-1H-benzimidazol-2-yl)methyl]-2-(morpholin-4-yl)pyrazolo[1,5-a][1,3,5]triazin-4-amine] | < 4.70 | 8.04 | 1.4 | 889 |
| COc1ccc2[nH]c(CNc3nc(N4CCN(C)CC4)nc4c(Br)cnn34)nc2c1 [Example 161, 8-bromo-N-[(5-methoxy-1H-benzimidazol-2-yl)methyl]-2-(4-methylpiperazin-1-yl)pyrazolo[1,5-a][1,3,5]triazin-4-amine] | < 4.70 | 7.95 | 0.856 | 11233 |
| CN1CCN(c2nc(NCc3nc4cc(Cl)ccc4[nH]3)n3ncc(Br)c3n2)CC1 [Example 163, 8-bromo-N-[(5-chloro-1H-benzimidazol-2-yl)methyl]-2-(4-methylpiperazin-1-yl)pyrazolo[1,5-a][1,3,5]triazin-4-amine] | < 4.70 | 8.40 | 0.334 | >17106 |
| CN1CCN(c2nc(NCc3nc4cc(F)ccc4[nH]3)n3ncc(C4CC4)c3n2)CC1 [Example 164, 8-cyclopropyl-N-[(5-fluoro-1H-benzimidazol-2-yl)methyl]-2-(4-methylpiperazin-1-yl)pyrazolo[1,5-a][1,3,5]triazin-4-amine] | < 4.70 | 7.59 | 0.99 | >20194 |
| CN1CCN(c2nc(NCc3nc4c(F)cccc4[nH]3)n3ncc(C4CC4)c3n2)CC1 [Example 165, 8-cyclopropyl-N-[(4-fluoro-1H-benzimidazol-2-yl)methyl]-2-(4-methylpiperazin-1-yl)pyrazolo[1,5-a][1,3,5]triazin-4-amine] | < 4.70 | 7.02 | 0.405 | 25224 |
| O=S1(=O)CCN(c2nc(NCc3nc4ccccc4[nH]3)n3ncc(Br)c3n2)CC1 [Example 166, 4-(4-{[(1H-benzimidazol-2-yl)methyl]amino}-8-bromopyrazolo[1,5-a][1,3,5]triazin-2-yl)-1 lambda^6-thiomorpholine-1,1-dione] | < 4.70 | 6.79 | 3.39 | 1800 |

The remaining lines, values ahead:

| pIC50 (CDK9/CycT1) | pIC50 [1] | DC50 [2] [nM] | (IC50 CDK12 high ATP) to (Degradation DC50 CDK12) ratio [2] | SMILES |
| --- | --- | --- | --- | --- |
| 5.91 | 7.61 | 2.58 | 1143 | Fc1cccc(-c2nnc(CNc3nc(N4C[C@H]5C[C@@H]4CO5)nc4c(Br)cnn34)[nH]2)c1 [Example 153, 8-bromo-N-{[5-(3-fluorophenyl)-4H-1,2,4-triazol-3-yl]methyl}-2-[(1R,4R)-2-oxa-5-azabicyclo[2.2.1]heptan-5-yl]pyrazolo[1,5-a][1,3,5]triazin-4-amine] |
| 5.59 | 7.58 | 5.27 | 1360 | C[C@H]1CN(c2nc(NCc3nnc(-c4cccc(F)c4)[nH]3)n3ncc(Br)c3n2)CCN1C [Example 154, 8-bromo-2-[(3S)-3,4-dimethylpiperazin-1-yl]-N-{[5-(3-fluorophenyl)-4H-1,2,4-triazol-3-yl]methyl}pyrazolo[1,5-a][1,3,5]triazin-4-amine] |
| < 4.70 | 6.76 | 47.2 | 79 | CN1CCN(c2nc(NCc3nc4ccccc4[nH]3)n3ncc(Br)c3n2)C(CO)C1 (centres unmarked) [Example 155, [1-[4-(1H-benzimidazol-2-ylmethylamino)-8-bromo-pyrazolo[1,5-a][1,3,5]triazin-2-yl]-4-methyl-piperazin-2-yl]methanol] |
| < 4.70 | 7.69 | 1.06 | 8849 | CC1CN(C)CCN1c1nc(NCc2nc3ccccc3[nH]2)n2ncc(Br)c2n1 (centres unmarked) [Example 156, N-(1H-benzimidazol-2-ylmethyl)-8-bromo-2-(2,4-dimethylpiperazin-1-yl)pyrazolo[1,5-a][1,3,5]triazin-4-amine] |
| < 4.70 | 8.32 | 0.62 | 1089 | Cc1ccc2[nH]c(CNc3nc(N4CCOCC4)nc4c(Br)cnn34)nc2c1 [Example 157, 8-bromo-N-[(5-methyl-1H-benzimidazol-2-yl)methyl]-2-(morpholin-4-yl)pyrazolo[1,5-a][1,3,5]triazin-4-amine] |
| < 4.70 | 8.37 | 0.536 | 8313 | Cc1ccc2[nH]c(CNc3nc(N4CCN(C)CC4)nc4c(Br)cnn34)nc2c1 [Example 158, 8-bromo-N-[(5-methyl-1H-benzimidazol-2-yl)methyl]-2-(4-methylpiperazin-1-yl)pyrazolo[1,5-a][1,3,5]triazin-4-amine] |
| 4.76 | 8.40 | 0.471 | 2160 | Clc1ccc2[nH]c(CNc3nc(N4CCOCC4)nc4c(Br)cnn34)nc2c1 [Example 162, 8-bromo-N-[(5-chloro-1H-benzimidazol-2-yl)methyl]-2-(morpholin-4-yl)pyrazolo[1,5-a][1,3,5]triazin-4-amine] |
